From PMC5218480 (PLoS ONE, 2017)

System: MV-4-11 cells
Experiment: Gene expression microarray analysis (Affymetrix PrimeView) and GSEA
Type: cell-based, human
Parameters: RFU PODN (11730768_x_at) / Fold change /veh PODN (11730768_x_at) / RFU LINC00158 (11744669_a_at) / Fold change /veh LINC00158 (11744669_a_at) / RFU DUSP10 (11751237_a_at) / Fold change /veh DUSP10 (11751237_a_at) / RFU ID3 (11757404_x_at) / Fold change /veh ID3 (11757404_x_at) / RFU PLEKHG5 (11737974_s_at) / Fold change /veh PLEKHG5 (11737974_s_at) / RFU LRRC4B (11730491_at) / Fold change /veh LRRC4B (11730491_at) / RFU GIMAP4 (11747438_a_at) / Fold change /veh GIMAP4 (11747438_a_at) / RFU KRT8 (11758183_x_at) / Fold change /veh KRT8 (11758183_x_at) / RFU CNN1 (11734310_a_at) / Fold change /veh CNN1 (11734310_a_at) / RFU VPS37D (11726825_at) / Fold change /veh VPS37D (11726825_at) / RFU C10orf10 (11716522_x_at) / Fold change /veh C10orf10 (11716522_x_at) / RFU KIR2DL2 /// KIR2DL4 /// KIR2DL5A /// KIR2DL5B /// KIR2DS1 /// KIR2DS2 /// KIR2DS3 /// KIR2DS4 /// KIR3DL3 /// KIR3DL3 /// KIR3DS1 (11738374_at) / Fold change /veh KIR2DL2 /// KIR2DL4 /// KIR2DL5A /// KIR2DL5B /// KIR2DS1 /// KIR2DS2 /// KIR2DS3 /// KIR2DS4 /// KIR3DL3 /// KIR3DL3 /// KIR3DS1 (11738374_at) / RFU C1QL1 (11718748_at) / Fold change /veh C1QL1 (11718748_at) / RFU TMPRSS4 (11747572_a_at) / Fold change /veh TMPRSS4 (11747572_a_at) / RFU HAMP (11756126_x_at) / Fold change /veh HAMP (11756126_x_at) / RFU RNFT2 (11725882_a_at) / Fold change /veh RNFT2 (11725882_a_at) / RFU NR4A2 (11747474_a_at) / Fold change /veh NR4A2 (11747474_a_at) / RFU ABCC12 (11746883_a_at) / Fold change /veh ABCC12 (11746883_a_at) / RFU TMEM136 (11760407_x_at) / Fold change /veh TMEM136 (11760407_x_at) / RFU CLDN22 /// WWC2 (11732394_at) / Fold change /veh CLDN22 /// WWC2 (11732394_at) / RFU HLA-DPB1 (11760878_x_at) / Fold change /veh HLA-DPB1 (11760878_x_at) / RFU SPINT1 (11716480_a_at) / Fold change /veh SPINT1 (11716480_a_at) / RFU GAP43 (11754022_s_at) / Fold change /veh GAP43 (11754022_s_at) / RFU A4GNT (11735810_at) / Fold change /veh A4GNT (11735810_at) / RFU PRB3 (11715151_x_at) / Fold change /veh PRB3 (11715151_x_at) / RFU TUBB4B (11761932_at) / Fold change /veh TUBB4B (11761932_at) / RFU CAPN14 (11732068_a_at) / Fold change /veh CAPN14 (11732068_a_at) / RFU TMCC2 (11721928_a_at) / Fold change /veh TMCC2 (11721928_a_at) / RFU IRGQ (11745062_a_at) / Fold change /veh IRGQ (11745062_a_at) / RFU FAM174B (11720279_a_at) / Fold change /veh FAM174B (11720279_a_at) / RFU TMPRSS4 (11748680_a_at) / Fold change /veh TMPRSS4 (11748680_a_at) / RFU FAM212B (11763350_a_at) / Fold change /veh FAM212B (11763350_a_at) / RFU PLEKHG5 (11743358_a_at) / Fold change /veh PLEKHG5 (11743358_a_at) / RFU ZSCAN30 (11745921_a_at) / Fold change /veh ZSCAN30 (11745921_a_at) / RFU CMKLR1 (11741424_a_at) / Fold change /veh CMKLR1 (11741424_a_at) / RFU LOC101060620 /// MAPK8IP1 (11723275_at) / Fold change /veh LOC101060620 /// MAPK8IP1 (11723275_at) / RFU SPTSSB (11747773_x_at) / Fold change /veh SPTSSB (11747773_x_at) / RFU PRSS12 (11739890_at) / Fold change /veh PRSS12 (11739890_at) / RFU BIN1 (11741810_x_at) / Fold change /veh BIN1 (11741810_x_at) / RFU WNT11 (11732464_a_at) / Fold change /veh WNT11 (11732464_a_at) / RFU C10orf10 (11716521_a_at) / Fold change /veh C10orf10 (11716521_a_at) / RFU C5orf56 (11738089_at) / Fold change /veh C5orf56 (11738089_at) / RFU CYB561 (11721691_x_at) / Fold change /veh CYB561 (11721691_x_at) / RFU ANKRD19P (11752326_a_at) / Fold change /veh ANKRD19P (11752326_a_at) / RFU OR2T12 /// OR2T33 /// OR2T8 (11738714_s_at) / Fold change /veh OR2T12 /// OR2T33 /// OR2T8 (11738714_s_at) / RFU VCAN (11748164_a_at) / Fold change /veh VCAN (11748164_a_at) / RFU JSRP1 (11732532_at) / Fold change /veh JSRP1 (11732532_at) / RFU KRTAP10-11 (11738290_x_at) / Fold change /veh KRTAP10-11 (11738290_x_at) / RFU MYO3A (11730013_a_at) / Fold change /veh MYO3A (11730013_a_at) / RFU EBF3 (11725865_a_at) / Fold change /veh EBF3 (11725865_a_at) / RFU CAMK2N1 (11719241_x_at) / Fold change /veh CAMK2N1 (11719241_x_at) / RFU C5orf56 (11738088_a_at) / Fold change /veh C5orf56 (11738088_a_at) / RFU OLFML3 (11715873_a_at) / Fold change /veh OLFML3 (11715873_a_at) / RFU LOC100653217 /// NTM (11731650_a_at) / Fold change /veh LOC100653217 /// NTM (11731650_a_at) / RFU MAPK11 (11762145_a_at) / Fold change /veh MAPK11 (11762145_a_at) / RFU FIZ1 (11724087_x_at) / Fold change /veh FIZ1 (11724087_x_at) / RFU OASL (11726364_x_at) / Fold change /veh OASL (11726364_x_at) / RFU SOX15 (11748057_x_at) / Fold change /veh SOX15 (11748057_x_at) / RFU CD79A (11719716_a_at) / Fold change /veh CD79A (11719716_a_at) / RFU HIST1H1D (11736915_at) / Fold change /veh HIST1H1D (11736915_at) / RFU CASKIN2 (11723855_a_at) / Fold change /veh CASKIN2 (11723855_a_at) / RFU LOC730098 (11760151_x_at) / Fold change /veh LOC730098 (11760151_x_at) / RFU OR4N2 (11742367_at) / Fold change /veh OR4N2 (11742367_at) / RFU PRRT2 (11749266_a_at) / Fold change /veh PRRT2 (11749266_a_at) / RFU SNX32 (11753110_a_at) / Fold change /veh SNX32 (11753110_a_at) / RFU CDHR5 (11726645_a_at) / Fold change /veh CDHR5 (11726645_a_at) / RFU RCAN1 (11760418_a_at) / Fold change /veh RCAN1 (11760418_a_at) / RFU FAM167A (11723789_a_at) / Fold change /veh FAM167A (11723789_a_at) / RFU FAM26E (11764081_at) / Fold change /veh FAM26E (11764081_at) / RFU ISYNA1 (11749810_s_at) / Fold change /veh ISYNA1 (11749810_s_at) / RFU ACY1 (11761880_at) / Fold change /veh ACY1 (11761880_at) / RFU 11764098_at / Fold change /veh 11764098_at / RFU SAMD14 (11745864_x_at) / Fold change /veh SAMD14 (11745864_x_at) / RFU NPB (11741838_a_at) / Fold change /veh NPB (11741838_a_at) / RFU TMPRSS6 (11731388_a_at) / Fold change /veh TMPRSS6 (11731388_a_at) / RFU KRTAP10-2 (11738614_at) / Fold change /veh KRTAP10-2 (11738614_at) / RFU ARHGAP8 /// PRR5-ARHGAP8 (11727945_x_at) / Fold change /veh ARHGAP8 /// PRR5-ARHGAP8 (11727945_x_at) / RFU KRTAP5-7 /// NADSYN1 (11734609_at) / Fold change /veh KRTAP5-7 /// NADSYN1 (11734609_at) / RFU RASL12 (11751679_a_at) / Fold change /veh RASL12 (11751679_a_at) / RFU CDKN2B (11736163_a_at) / Fold change /veh CDKN2B (11736163_a_at) / RFU PRF1 (11729649_at) / Fold change /veh PRF1 (11729649_at) / RFU, ZNF638 /// ZNF638-IT1 / Fold change vs veh, ZNF638 /// ZNF638-IT1 / RFU, PANK3 / Fold change vs veh, PANK3 / RFU, SH3YL1 / Fold change vs veh, SH3YL1 / RFU, ZEB2 / Fold change vs veh, ZEB2 / RFU, NRIP1 / Fold change vs veh, NRIP1 / RFU, PTTG1IP / Fold change vs veh, PTTG1IP / RFU, CAPN2 / Fold change vs veh, CAPN2 / RFU, MED14 / Fold change vs veh, MED14 / RFU, SNORA58 / Fold change vs veh, SNORA58 / RFU, C1orf63 / Fold change vs veh, C1orf63 / RFU, LRRFIP1 / Fold change vs veh, LRRFIP1 / RFU, NDUFAF7 / Fold change vs veh, NDUFAF7 / RFU, SLC12A2 / Fold change vs veh, SLC12A2 / RFU, IBTK / Fold change vs veh, IBTK / RFU, ESF1 / Fold change vs veh, ESF1 / Fold change vs veh, TMEM50B / RFU, TAOK1 / Fold change vs veh, TAOK1 / RFU, ACBD3 / Fold change vs veh, ACBD3 / RFU, TMA16 / Fold change vs veh, TMA16 / RFU, RWDD3 / Fold change vs veh, RWDD3 / RFU, BCAT1 / Fold change vs veh, BCAT1 / RFU, EDEM3 / Fold change vs veh, EDEM3 / RFU, TMEM33 / Fold change vs veh, TMEM33 / RFU, WDR75 / Fold change vs veh, WDR75 / RFU, AHCTF1 / Fold change vs veh, AHCTF1 / RFU, TFRC / Fold change vs veh, TFRC / RFU, ZDHHC17 / Fold change vs veh, ZDHHC17 / RFU, NOM1 / Fold change vs veh, NOM1 / RFU, ARL8B / Fold change vs veh, ARL8B / RFU, ZBTB11 / Fold change vs veh, ZBTB11 / RFU, TAMM41 / Fold change vs veh, TAMM41 / RFU, KIAA1704 /// LOC100996395 / Fold change vs veh, KIAA1704 /// LOC100996395 / RFU, ING1 / Fold change vs veh, ING1 / RFU, TRMT61B / Fold change vs veh, TRMT61B / RFU, FUBP3 / Fold change vs veh, FUBP3 / RFU, TP53 / Fold change vs veh, TP53 / RFU, TNKS2 / Fold change vs veh, TNKS2 / RFU, ZFP14 / Fold change vs veh, ZFP14 / RFU, ACTR2 / Fold change vs veh, ACTR2 / RFU, PPP3R1 / Fold change vs veh, PPP3R1 / RFU, PIK3R1 / Fold change vs veh, PIK3R1 / RFU, HNRNPA1 / Fold change vs veh, HNRNPA1 / RFU, RNF170 / Fold change vs veh, RNF170 / RFU, ZNF28 / Fold change vs veh, ZNF28 / RFU, RNGTT / Fold change vs veh, RNGTT / RFU, OGT / Fold change vs veh, OGT / RFU, BRD1 / Fold change vs veh, BRD1 / RFU, MARS / Fold change vs veh, MARS / RFU, ZNF655 / Fold change vs veh, ZNF655 / RFU, FAHD1 / Fold change vs veh, FAHD1 / RFU, BDP1 / Fold change vs veh, BDP1 / RFU, LRRCC1 / Fold change vs veh, LRRCC1 / RFU, ARID1A / Fold change vs veh, ARID1A / RFU, ZNF146 / Fold change vs veh, ZNF146 / RFU, ZNF330 / Fold change vs veh, ZNF330 / RFU, GPN3 / Fold change vs veh, GPN3 / RFU, C9orf123 / Fold change vs veh, C9orf123 / RFU, N4BP2L2 / Fold change vs veh, N4BP2L2 / RFU, ARFIP1 / Fold change vs veh, ARFIP1 / RFU, FAM179B / Fold change vs veh, FAM179B / RFU, BCL10 / Fold change vs veh, BCL10 / RFU, UHRF1BP1L / Fold change vs veh, UHRF1BP1L / RFU, BET1 / Fold change vs veh, BET1 / RFU, CNOT2 / Fold change vs veh, CNOT2 / RFU, ZNF268 / Fold change vs veh, ZNF268 / Fold change vs veh, ZNF507 / RFU, DGCR2 / Fold change vs veh, DGCR2 / RFU, WDSUB1 / Fold change vs veh, WDSUB1 / Fold change vs veh, HSP90B1 /// MIR3652 / RFU, ADSS / Fold change vs veh, ADSS / RFU, GK / Fold change vs veh, GK / RFU, ZNF148 / Fold change vs veh, ZNF148 / RFU, TAF9 / Fold change vs veh, TAF9 / RFU, SLC1A5 / Fold change vs veh, SLC1A5 / RFU, SLMO2 / Fold change vs veh, SLMO2 / RFU, ABCC4 / Fold change vs veh, ABCC4 / RFU, LOC101060439 /// RAP1B / Fold change vs veh, LOC101060439 /// RAP1B / RFU, RFX7 / Fold change vs veh, RFX7 / RFU, GTPBP10 / Fold change vs veh, GTPBP10 / RFU, CNEP1R1 / Fold change vs veh, CNEP1R1 / RFU, BIVM-ERCC5 /// ERCC5 / Fold change vs veh, BIVM-ERCC5 /// ERCC5 / RFU, ILF3 / Fold change vs veh, ILF3 / RFU 11762660_at / Fold change /veh 11762660_at / RFU VCAN (11757783_s_at) / Fold change /veh VCAN (11757783_s_at) / RFU DDX43 (11728927_at) / Fold change /veh DDX43 (11728927_at) / RFU KRT8 (11758188_x_at) / Fold change /veh KRT8 (11758188_x_at) / RFU NKD1 (11759106_at) / Fold change /veh NKD1 (11759106_at) / RFU SRD5A1 (11742802_a_at) / Fold change /veh SRD5A1 (11742802_a_at) / RFU TPSAB1 /// TPSB2 (11721975_s_at) / Fold change /veh TPSAB1 /// TPSB2 (11721975_s_at) / RFU GSTM3 (11746129_a_at) / Fold change /veh GSTM3 (11746129_a_at) / RFU IL23R (11737362_x_at) / Fold change /veh IL23R (11737362_x_at) / RFU TMEM51 (11727254_a_at) / Fold change /veh TMEM51 (11727254_a_at) / RFU PIWIL2 (11732686_x_at) / Fold change /veh PIWIL2 (11732686_x_at) / RFU ORM1 (11744905_x_at) / Fold change /veh ORM1 (11744905_x_at) / RFU CCDC152 (11743942_at) / Fold change /veh CCDC152 (11743942_at) / RFU ECM1 (11717891_a_at) / Fold change /veh ECM1 (11717891_a_at) / RFU IL23R (11748794_a_at) / Fold change /veh IL23R (11748794_a_at) / RFU TNFAIP8L3 (11732012_x_at) / Fold change /veh TNFAIP8L3 (11732012_x_at) / RFU MBOAT4 (11741988_at) / Fold change /veh MBOAT4 (11741988_at) / RFU 11764193_at / Fold change /veh 11764193_at / RFU TMEM53 (11763286_at) / Fold change /veh TMEM53 (11763286_at) / RFU MAGEB2 (11727129_at) / Fold change /veh MAGEB2 (11727129_at) / RFU TMEM200A (11744735_a_at) / Fold change /veh TMEM200A (11744735_a_at) / RFU CCDC152 (11751479_a_at) / Fold change /veh CCDC152 (11751479_a_at) / RFU FAM211A (11726209_a_at) / Fold change /veh FAM211A (11726209_a_at) / RFU RGS16 (11746705_a_at) / Fold change /veh RGS16 (11746705_a_at) / RFU VCAN (11755009_s_at) / Fold change /veh VCAN (11755009_s_at) / RFU RHOB (11743442_s_at) / Fold change /veh RHOB (11743442_s_at) / RFU RGS16 (11720943_a_at) / Fold change /veh RGS16 (11720943_a_at) / RFU RGS16 (11720944_at) / Fold change /veh RGS16 (11720944_at) / RFU, VPS4B / Fold change vs veh, VPS4B / RFU, CREB1 / Fold change vs veh, CREB1 / RFU, DNAJC13 / Fold change vs veh, DNAJC13 / RFU, GNAQ / Fold change vs veh, GNAQ / RFU, CDK5R1 / Fold change vs veh, CDK5R1 / RFU, ZRANB3 / Fold change vs veh, ZRANB3 / RFU, CUL4A / Fold change vs veh, CUL4A / RFU, CCNY / Fold change vs veh, CCNY / RFU, UFL1 / Fold change vs veh, UFL1 / RFU, COG3 / Fold change vs veh, COG3 / RFU, DIAPH2 / Fold change vs veh, DIAPH2 / RFU, SKA2 / Fold change vs veh, SKA2 / RFU, AFF3 / Fold change vs veh, AFF3 / RFU, LMF1 / Fold change vs veh, LMF1 / RFU, IPO11 / Fold change vs veh, IPO11 / RFU, DFFB / Fold change vs veh, DFFB / RFU, FOXP1 / Fold change vs veh, FOXP1 / RFU, CARD8 / Fold change vs veh, CARD8 / RFU, STRN3 / Fold change vs veh, STRN3 / RFU, ADK / Fold change vs veh, ADK / RFU, RASSF2 / Fold change vs veh, RASSF2 / RFU, WIPF1 / Fold change vs veh, WIPF1 / RFU, LARP1B / Fold change vs veh, LARP1B / RFU, RASA1 / Fold change vs veh, RASA1 / RFU, RB1 / Fold change vs veh, RB1 / RFU, PPFIA1 / Fold change vs veh, PPFIA1 / RFU, MAT2A / Fold change vs veh, MAT2A / RFU, CCT5 / Fold change vs veh, CCT5 / RFU, WDR92 / Fold change vs veh, WDR92 / RFU, CUX1 / Fold change vs veh, CUX1 / RFU, TTC7A / Fold change vs veh, TTC7A / RFU, TMEM135 / Fold change vs veh, TMEM135 / RFU, DEPTOR / Fold change vs veh, DEPTOR / RFU, CPM / Fold change vs veh, CPM / RFU, DNAJB6 / Fold change vs veh, DNAJB6 / RFU, CACNA2D3 / Fold change vs veh, CACNA2D3 / RFU, DTX4 / Fold change vs veh, DTX4 / RFU, TFCP2 / Fold change vs veh, TFCP2 / RFU, GMCL1 /// GMCL1P1 / Fold change vs veh, GMCL1 /// GMCL1P1 / RFU, AEBP2 / Fold change vs veh, AEBP2 / RFU, SNHG1 /// SNORD22 /// SNORD25 /// SNORD26 /// SNORD27 /// SNORD28 /// SNORD29 /// SNORD31 / Fold change vs veh, SNHG1 /// SNORD22 /// SNORD25 /// SNORD26 /// SNORD27 /// SNORD28 /// SNORD29 /// SNORD31 / Fold change (Aza/veh), C12orf56 (ProbeSet 11735607_a_at) / Fold change (ACY-1035/veh), C12orf56 (ProbeSet 11735607_a_at) / Fold change (Aza/veh), FGFR1OP (ProbeSet 11751329_s_at) / Fold change (ACY-1035/veh), FGFR1OP (ProbeSet 11751329_s_at) / Fold change (Aza/veh), VPS36 (ProbeSet 11739960_a_at) / Fold change (ACY-1035/veh), VPS36 (ProbeSet 11739960_a_at) / RFU SYPL1 (11715823_x_at) / Fold change /veh SYPL1 (11715823_x_at) / RFU IGFBP7 (11715501_s_at) / Fold change /veh IGFBP7 (11715501_s_at) / RFU REEP3 (11722064_at) / Fold change /veh REEP3 (11722064_at) / RFU IGLL1 (11728026_x_at) / Fold change /veh IGLL1 (11728026_x_at): dose or concentration left out as unconfirmed
Conditions: MV-4-11 cells, 48 hours

In the case of `Nc1ncn([C@@H]2O[C@H](CO)[C@@H](O)[C@H]2O)c(=O)n1` [azacitidine], the “RFU NR4A2 (11747474_a_at)” value was 22.61 RFU.
